Assay results published in ChEMBL document CHEMBL1817568, “Novel hybrids of fluconazole and furanones: design, synthesis and antifungal activity” (2011).
In brackets after ≈: the same amount, converted by molar mass. Activity calls are given as the source filed them. The rule behind the calls is not given here.

What was measured:
Pichia kudriavzevii [1] = test: Antifungal activity against Candida krusei ATCC 6258 at 4 ug/ml by broth dilution method; format: functional, organism-based
Nakaseomyces glabratus [2] = test: Antifungal activity against Candida glabrata ATCC 90030 by broth dilution method; format: functional
Aspergillus niger [3] = test: Antifungal activity against Aspergillus niger ATCC 16404 at 4 ug/ml by broth dilution method; format: functional, organism-based
Aspergillus fumigatus [4] = test: Antifungal activity against Aspergillus fumigatus ATCC 46645 at 4 ug/ml by broth dilution method; format: functional, organism-based
Candida tropicalis [5] = test: Antifungal activity against Candida tropicalis ATCC 750 by broth dilution method; format: functional
Cryptococcus neoformans [6] = test: Antifungal activity against Cryptococcus neoformans ATCC 34664 by broth dilution method; format: functional
Fusarium proliferatum [7] = test: Antifungal activity against Fusarium proliferatum ATCC 10052 at 4 ug/ml by broth dilution method; format: functional, organism-based
Candida albicans [8] = test: Antifungal activity against Candida albicans ATCC 24433 by broth dilution method; format: functional
Nakaseomyces glabratus [9] = test: Antifungal activity against Candida glabrata ATCC 90030 at 8 ug/ml by broth dilution method; format: functional, organism-based
Aspergillus niger [10] = test: Antifungal activity against Aspergillus niger ATCC 16404 at 8 ug/ml by broth dilution method; format: functional, organism-based
Cryptococcus neoformans [11] = test: Antifungal activity against Cryptococcus neoformans ATCC 34664 at 8 ug/ml by broth dilution method; format: functional, organism-based
Aspergillus fumigatus [12] = test: Antifungal activity against Aspergillus fumigatus ATCC 46645 at 8 ug/ml by broth dilution method; format: functional, organism-based
Fusarium proliferatum [13] = test: Antifungal activity against Fusarium proliferatum ATCC 10052 at 8 ug/ml by broth dilution method; format: functional, organism-based
Candida albicans [14] = test: Antifungal activity against Candida albicans ATCC 24433 at 8 ug/ml by broth dilution method; format: functional, organism-based
Pichia kudriavzevii [15] = test: Antifungal activity against Candida krusei ATCC 6258 at 8 ug/ml by broth dilution method; format: functional, organism-based
Nakaseomyces glabratus [16] = test: Antifungal activity against Candida glabrata ATCC 90030 at 4 ug/ml by broth dilution method; format: functional, organism-based
Cryptococcus neoformans [17] = test: Antifungal activity against Cryptococcus neoformans ATCC 34664 at 4 ug/ml by broth dilution method; format: functional, organism-based
Candida albicans [18] = test: Antifungal activity against Candida albicans ATCC 24433 at 4 ug/ml by broth dilution method; format: functional, organism-based
Candida tropicalis [19] = test: Antifungal activity against Candida tropicalis ATCC 750 at 4 ug/ml by broth dilution method; format: functional, organism-based
Fusarium proliferatum [20] = test: Antifungal activity against Fusarium proliferatum ATCC 10052 at 128 ug/ml by broth dilution method; format: functional, organism-based
Aspergillus fumigatus [21] = test: Antifungal activity against Aspergillus fumigatus ATCC 46645 at 128 ug/ml by broth dilution method; format: functional, organism-based
Pichia kudriavzevii [22] = test: Antifungal activity against Candida krusei ATCC 6258 at 128 ug/ml by broth dilution method; format: functional, organism-based
Aspergillus niger [23] = test: Antifungal activity against Aspergillus niger ATCC 16404 at 128 ug/ml by broth dilution method; format: functional, organism-based
Pichia kudriavzevii [24] = test: Antifungal activity against Candida krusei ATCC 6258 by broth dilution method; format: functional

SMILES: Cc1ccc(C2=C(c3ccc(OCC(O)(Cn4cncn4)c4ccc(F)cc4F)cc3)C(=O)OC2)cc1 (racemic)
- Activity (Pichia kudriavzevii [1]): inactive
- MIC50 (Nakaseomyces glabratus [2]): 1 µg/mL (≈ 1.99 µM)
- Activity (Aspergillus niger [3]): inactive
- Activity (Aspergillus fumigatus [4]): inactive
- MIC50 (Candida tropicalis [5]): 2 µg/mL (≈ 3.97 µM)
- MIC50 (Cryptococcus neoformans [6]): 2 µg/mL (≈ 3.97 µM)
- Activity (Fusarium proliferatum [7]): inactive
- MIC50 (Candida albicans [8]): 0.5 µg/mL (≈ 0.993 µM)

SMILES: O=C1OCC(c2ccc(F)cc2F)=C1c1ccc(Cl)cc1
- Activity (Nakaseomyces glabratus [9]): inactive
- Activity (Aspergillus niger [10]): inactive
- Activity (Cryptococcus neoformans [11]): inactive
- Activity (Aspergillus fumigatus [12]): inactive
- Activity (Fusarium proliferatum [13]): inactive
- Activity (Candida albicans [14]): inactive
- Activity (Pichia kudriavzevii [15]): inactive

SMILES: COc1cc(/C=C2\N=C(c3ccccc3)OC2=O)ccc1OCC(O)(Cn1cncn1)c1ccc(F)cc1F (racemic)
- Activity (Pichia kudriavzevii [1]): inactive
- Activity (Aspergillus niger [3]): inactive
- Activity (Aspergillus fumigatus [4]): inactive
- Activity (Fusarium proliferatum [7]): inactive
- Activity (Nakaseomyces glabratus [16]): inactive
- Activity (Cryptococcus neoformans [17]): inactive
- Activity (Candida albicans [18]): inactive
- Activity (Candida tropicalis [19]): inactive

SMILES: O=C(O)Cc1ccc(OCC(O)(Cn2cncn2)c2ccc(F)cc2F)cc1 (racemic)
- Activity (Fusarium proliferatum [20]): inactive
- MIC50 (Nakaseomyces glabratus [2]): 8 µg/mL (≈ 20.5 µM)
- Activity (Aspergillus fumigatus [21]): inactive
- Activity (Pichia kudriavzevii [22]): inactive
- Activity (Aspergillus niger [23]): inactive
- MIC50 (Candida tropicalis [5]): 64 µg/mL (≈ 164 µM)
- MIC50 (Cryptococcus neoformans [6]): 64 µg/mL (≈ 164 µM)
- MIC50 (Candida albicans [8]): 8 µg/mL (≈ 20.5 µM)

SMILES: O=C1O/C(=C\c2ccc(OCC(O)(Cn3cncn3)c3ccc(F)cc3F)cc2)C(c2ccc(F)cc2F)=C1c1ccc(Cl)cc1 (racemic)
- Activity (Pichia kudriavzevii [1]): inactive
- Activity (Aspergillus niger [3]): inactive
- Activity (Aspergillus fumigatus [4]): inactive
- Activity (Fusarium proliferatum [7]): inactive
- Activity (Nakaseomyces glabratus [16]): inactive
- Activity (Cryptococcus neoformans [17]): inactive
- Activity (Candida albicans [18]): inactive
- Activity (Candida tropicalis [19]): inactive

SMILES: O=C1OCC(c2ccc(F)cc2F)=C1c1ccc(Cl)c(Cl)c1
- Activity (Pichia kudriavzevii [1]): inactive
- Activity (Aspergillus niger [3]): inactive
- Activity (Aspergillus fumigatus [4]): inactive
- Activity (Fusarium proliferatum [7]): inactive
- Activity (Nakaseomyces glabratus [16]): inactive
- Activity (Cryptococcus neoformans [17]): inactive
- Activity (Candida albicans [18]): inactive
- Activity (Candida tropicalis [19]): inactive

SMILES: COc1cc(C=O)ccc1OCC(O)(Cn1cncn1)c1ccc(F)cc1F (racemic)
- Activity (Fusarium proliferatum [20]): inactive
- MIC50 (Nakaseomyces glabratus [2]): 1 µg/mL (≈ 2.57 µM)
- Activity (Aspergillus fumigatus [21]): inactive
- Activity (Aspergillus niger [23]): inactive
- MIC50 (Candida tropicalis [5]): 8 µg/mL (≈ 20.5 µM)
- MIC50 (Cryptococcus neoformans [6]): 16 µg/mL (≈ 41.1 µM)
- MIC50 (Candida albicans [8]): 0.5 µg/mL (≈ 1.28 µM)
- MIC50 (Pichia kudriavzevii [24]): 128 µg/mL (≈ 329 µM)

SMILES: O=Cc1ccc(OCC(O)(Cn2cncn2)c2ccc(F)cc2F)cc1 (racemic)
- Activity (Fusarium proliferatum [20]): inactive
- MIC50 (Nakaseomyces glabratus [2]): 0.5 µg/mL (≈ 1.39 µM)
- Activity (Aspergillus fumigatus [21]): inactive
- Activity (Aspergillus niger [23]): inactive
- MIC50 (Candida tropicalis [5]): 4 µg/mL (≈ 11.1 µM)
- MIC50 (Cryptococcus neoformans [6]): 2 µg/mL (≈ 5.57 µM)
- MIC50 (Candida albicans [8]): 0.5 µg/mL (≈ 1.39 µM)
- MIC50 (Pichia kudriavzevii [24]): 16 µg/mL (≈ 44.5 µM)

SMILES: COc1ccc(/C=C2\N=C(c3ccccc3)OC2=O)cc1OCC(O)(Cn1cncn1)c1ccc(F)cc1F (racemic)
- Activity (Pichia kudriavzevii [1]): inactive
- Activity (Aspergillus niger [3]): inactive
- Activity (Aspergillus fumigatus [4]): inactive
- Activity (Fusarium proliferatum [7]): inactive
- Activity (Nakaseomyces glabratus [16]): inactive
- Activity (Cryptococcus neoformans [17]): inactive
- Activity (Candida albicans [18]): inactive
- Activity (Candida tropicalis [19]): inactive

SMILES: O=C1OCC(c2ccccc2)=C1c1ccc(OCC(O)(Cn2cncn2)c2ccc(F)cc2F)cc1 (racemic)
- Activity (Pichia kudriavzevii [1]): inactive
- MIC50 (Nakaseomyces glabratus [2]): 0.5 µg/mL (≈ 1.02 µM)
- Activity (Aspergillus niger [3]): inactive
- Activity (Aspergillus fumigatus [4]): inactive
- MIC50 (Candida tropicalis [5]): 2 µg/mL (≈ 4.09 µM)
- Activity (Fusarium proliferatum [7]): inactive
- MIC50 (Candida albicans [8]): 0.5 µg/mL (≈ 1.02 µM)
- Activity (Cryptococcus neoformans [17]): inactive

SMILES: OC(Cn1cncn1)(Cn1cncn1)c1ccc(F)cc1F [FLUCONAZOLE]
- Activity (Fusarium proliferatum [20]): inactive
- MIC50 (Nakaseomyces glabratus [2]): 1 µg/mL (≈ 3.27 µM)
- Activity (Aspergillus fumigatus [21]): inactive
- Activity (Aspergillus niger [23]): inactive
- MIC50 (Candida tropicalis [5]): 1 µg/mL (≈ 3.27 µM)
- MIC50 (Cryptococcus neoformans [6]): 2 µg/mL (≈ 6.53 µM)
- MIC50 (Candida albicans [8]): 0.25 µg/mL (≈ 0.816 µM)
- MIC50 (Pichia kudriavzevii [24]): 32 µg/mL (≈ 104 µM)

SMILES: O=C1OCC(c2ccc(Br)cc2)=C1c1ccc(OCC(O)(Cn2cncn2)c2ccc(F)cc2F)cc1 (racemic)
- Activity (Aspergillus niger [10]): inactive
- MIC50 (Nakaseomyces glabratus [2]): 2 µg/mL (≈ 3.52 µM)
- MIC50 (Candida tropicalis [5]): 4 µg/mL (≈ 7.04 µM)
- Activity (Aspergillus fumigatus [12]): inactive
- MIC50 (Cryptococcus neoformans [6]): 1 µg/mL (≈ 1.76 µM)
- MIC50 (Candida albicans [8]): 0.5 µg/mL (≈ 0.88 µM)
- Activity (Fusarium proliferatum [13]): inactive
- MIC50 (Pichia kudriavzevii [24]): 8 µg/mL (≈ 14.1 µM)

SMILES: COc1ccc(/C=C2\SC(=S)NC2=O)cc1OCC(O)(Cn1cncn1)c1ccc(F)cc1F (racemic)
- Activity (Nakaseomyces glabratus [9]): inactive
- Activity (Aspergillus niger [10]): inactive
- Activity (Cryptococcus neoformans [11]): inactive
- Activity (Aspergillus fumigatus [12]): inactive
- Activity (Fusarium proliferatum [13]): inactive
- Activity (Candida albicans [14]): inactive
- Activity (Pichia kudriavzevii [15]): inactive
